According to EP0233173A1, “1-[3-(2-Hydroxy-3-alkylamino-propoxy)-2-thienyl]-3-phenyl-1-propanones and their acid addition salts, process for their preparation and pharmaceutical compositions containing them” (Laevosan-Gesellschaft m.b.H., priority 1986, dated 1987):

Legend:
[1] = system: isolierte linke Meerschweinchenvorhof; assay: Isolated, electrically stimulated left guinea pig atrium: refractory period, contraction force and excitability; assay type: cell-based, Meerschweinchen; details: for Hemmung der Kontraktionskraft / Verlängerung der RP / inhibition at 10 µM / percent prolongation of refractory period at 10 µM: concentration not given; for ERP / EKK: ratio of prolongation of RP to inhibition of contraction force; for inhibition at 100 µM / inhibition at 10 µM: Cavia porcellus, read-out: Hemmung der Kontraktionskraft
Text: Für das Screening wurde […]. Die Vorhöfe wurden durch Rechteckimpulse ( ∼ 3 msec) mit einer Basisfrequenz von 2 Hz […]. Nun wurde mittels eines Extrastimulus, dessen […] und ohne Verbindung bestimmt. […] Um zwischen Na-antagonistischen und anderen Wirkungen unterscheiden zu […] RP, die Kontraktionskraft und die Erregbarkeit des […] untersucht.

[2] = system: teilweise depolarisierten Papillarmuskel; assay: Partially depolarised papillary muscle (extracellular potassium raised about 4-fold): mechanism of the negative inotropic effect; assay type: cell-based; details: partially depolarised membranes; cause of the negative inotropic effect; result in words
Text: Weitere Untersuchungen wurden am teilweise depolarisierten Papillarmuskel durchgeführt, um zwischen der negativ inotropen Wirkung, welche auf Blockade der schnellen Na⁺-Kanälchen und einer, die auf anderen Mechanismen beruht, zu unterscheiden. Im Versuch wurde die teilweise Depolarisation der Herzmuskelzellmembran durch Erhöhung der extrazellulären Kalium-Konzentration auf das ca. 4-fache erreicht.

[3] = 10 µM according to b47, atrium stimulated at 2 Hz, mean ± spread
[4] = 100 µM, atrium stimulated at 2 Hz, mean ± spread, read-out: Verlängerung der RP
[5] = 100 µM, atrium stimulated at 2 Hz, mean ± spread
[6] = 10 µM according to b47, atrium stimulated at 2 Hz, mean ± spread, read-out: Verlängerung der RP

1-[3-(2-Hydroxy-3-(4-methyl)-1-piperidinyl)-propoxy)-4-methyl-2-thienyl]-3-phenyl-1-propanon-hydrochlorid [LG 84-6-11]
Hemmung der Kontraktionskraft [1, 3]: 59 ± 3,3% | Verlängerung der RP [1, 3]: 157 ± 10,0% | ERP / EKK ([1]; 10 µM according to b47): 2,7

1-[4-Methyl-3-(2-hydroxy-3-sek.butylaminopropoxy)-2-thienyl]-3-phenyl-1-propanon-chlorhydrat [LG 84-6-08]
Hemmung der Kontraktionskraft [1, 3]: 65 ± 4,0% | Verlängerung der RP [1, 3]: 129 ± 11,0% | ERP / EKK ([1]; 10 µM according to b47): 2,0

C=C[C@H]1CN2CC[C@H]1C[C@@H]2[C@@H](O)c1ccnc2ccc(OC)cc12 [Chinidin, reference compound]
activation at 100 µM [1, 4]: > 161% | inhibition at 100 µM [1, 5]: 77 ± 4%

CCC(C)(C)NCC(O)COc1c(C)csc1C(=O)CCc1ccccc1.Cl (stereo not drawn) [LG 84-6-07, 1-[3-(2-Hydroxy-3-tert.pentylaminopropoxy)-4-methyl-2-thienyl]-3-phenyl-1-propanon-hydrochlorid]
inhibition at 10 µM [1, 3]: 52 ± 4% | Verhältnis zwischen der Verlängerung der Refraktärperiode und der gleichzeitig beobachteten Kontraktionskraftsenkung ([1]; comparison among the tested antiarrhythmics, result in words): am größten | percent prolongation of refractory period at 10 µM [1, 6]: 66 ± 13% | Dosen für Verlängerung der Refraktärperiode gegenüber Senkung der Kontraktionskraft ([1]; doses for prolonging the refractory period compared with doses for lowering contraction force, result in words): mit wesentlich kleineren Dosen erzielt | ERP / EKK ([1]; 10 µM according to b47): 1,3 | Erregbarkeit des Vorhofes ([1]; result in words): Verminderung der Erregbarkeit des Vorhofes | negativ incorope Komponente [2]: nur durch den Na⁺-Antagonismus hervogerufen

Cc1csc(C(=O)CCc2ccccc2)c1OCC(O)CNCC(C)(C)C.Cl (stereo not drawn) [LG 84-6-09, 1-[3-(2-Hydroxy-3-(2,2-dimethylpropylamino)-propoxy)-4-methyl-2-thienyl]-3-phenyl-1-propanon-hydrochlorid]
inhibition at 10 µM [1, 3]: 37 ± 4.5% | percent prolongation of refractory period at 10 µM [1, 6]: 112 ± 18% | ERP / EKK ([1]; 10 µM according to b47): 3,0

CCN(CC)CC(=O)Nc1c(C)cccc1C [Lidocain, reference compound]
percent prolongation of refractory period at 100 µM [1, 4]: 63 ± 6% | inhibition at 100 µM [1, 5]: 17 ± 5% | ERP / EKK ([1]; 100 µM): 3,7
